Here are results for seven compounds from PMC8745253, “Affinity and Specificity for Binding to Glycosaminoglycans Can Be Tuned by Adapting Peptide Length and Sequence” (International Journal of Molecular Sciences, 2021).

For assay [1] the following is noted: cited from earlier work. The text has this:
No significant difference in affinity for HS was detected between the long (KKKQQK) and short (KKQK) GAG-binding motifs (Figure 2). […] This is consistent with the report that peptides containing multiple copies of the GAG-binding motifs XBBXBX and XBBBXXBX had higher affinity for heparin [30]. It is important to point out that CXCL9(74-103) had the ...

In assay [2] the test system is cellular GAGs on HS+ and HS- CHO cells. Put plainly: Binding of TAMRA-labeled peptides to cellular GAGs in the presence of added soluble GAGs, flow cytometry. Format: cell-based, Chinese hamster. The following applies: versus no GAG, Kruskal–Wallis test, n ≥ 6; for Effect of added soluble HA on binding of the peptide to cellular GAGs (MFI ([HS+]–[HS−])): 0.24 nmol peptide with 0.03-3 μg HA (70–120 kDa); for Effect of added soluble HS on binding of the peptide to cellular GAGs (MFI ([HS+]–[HS−])): 0.24 nmol peptide with 0.03-3 μg HS; for Effect of added soluble heparin on binding of the peptide to cellular GAGs (MFI ([HS+]–[HS−])): 0.24 nmol peptide with 0.03-3 μg heparin. The method, then:
(§1) First, the medium was discarded, the cells were washed with PBS and were detached with trypsin/EDTA at 37 °C. Subsequently, the cells were resuspended in medium and left at room temperature for 45 min, and afterwards on ice for 15 min. After centrifugation at 177 g and 4 °C for 7 min, the pellet was resuspended in PBS and the cells were kept on ice. For each condition, 1 × 10^5 cells in 100 μL PBS were used and 4.7% (v/v) FcR blocking reagent and 0.06% (v/v) Zombie Aqua fixable viability dye were added to the cells. Following incubation in the dark at room temperature for 20 min, a wash step with flow cytometry buffer was performed. Afterwards, 0.24 nmol TAMRA-labeled peptide was added to the cells. After incubation in the dark on ice for 30 min, a wash step with flow cytometry buffer was performed and, subsequently, the cells were fixed with 0.4% (v/v) formaldehyde in flow cytometry buffer and kept at 4 °C. Flow cytometric analysis was performed within the following 24 h using a BD LSRFortessa X-20 flow cytometer (BD Biosciences; Franklin Lakes, NJ, USA), and the results were analyzed using FlowJo software (BD Biosciences).
Similarly, the binding of three TAMRA-labeled peptides (KKQK-3mer, KKKQQK-2mer and CXCL9(74-103)) to cellular GAGs on pgsB-618 clone 16 (HS^− CHO cells) and pgsB-618 clone 19 cells (HS^+ CHO cells) in the presence of added GAGs was assessed using flow cytometry. In this experiment, different doses (0.03, 0.1, 0.3, 1 or 3 μg) of heparin (heparin low in calcium; Iduron; Cheshire, UK), HS (GAG HS01 BN1; Iduron; Cheshire, UK) or HA (70–120 kDa; HA sodium salt 96144; Sigma-Aldrich; St. Louis, MO, USA) were added to the cells, simultaneously with 0.24 nmol of TAMRA-labeled peptide (vide supra).
(§2) Flow cytometry data (Figure 7C and Figure S2) are represented as median. […] In the next step, either a Mann–Whitney test (for unpaired data) or a Wilcoxon test (for paired data) was used to compare the groups. Statistical analysis was performed using GraphPad Prism 8.3.0 software (GraphPad Software; San Diego, CA, USA).

For assay [3], the system named is cellular GAGs on HS+ (pgsB-618 clone 19) and HS- (pgsB-618 clone 16) CHO cells. Put plainly: Binding of TAMRA-labeled peptides to cellular GAGs, flow cytometry. It is filed as cell-based, Chinese hamster. As to conditions: 0.24 nmol TAMRA-labeled peptide; for Binding to HS+ CHO cells compared with HS- CHO cells (MFI): 1 × 10^5 cells, 30 min on ice, Wilcoxon test; for Binding capacity for cellular GAGs (MFI ([HS+]–[HS−])), comparison of the peptides: n ≥ 7, Mann–Whitney test. The protocol: The binding of four different TAMRA-labeled peptides (KKAK-2mer, KKQK-3mer, KKKQQK-2mer and CXCL9(74-103)) to cellular GAGs on pgsB-618 clone 16 (HS^− CHO cells) and pgsB-618 clone 19 cells (HS^+ CHO cells) was assessed using flow cytometry. Since each peptide contains exactly one TAMRA-group connected to the N-terminus, this allows us to quantify the peptides by their fluorescence or absorbance.
as §1, §2
(In flow cytometry, cells or beads pass a laser one at a time.)

The conditions of assay [4]: cited from earlier work. From the text:
(§3) Chemokines are small proteins that have two main interaction partners: chemokine receptors, which are G protein-coupled receptors (GPCRs), and GAGs. The binding of chemokines to GAGs enables the formation of a chemokine concentration gradient, which is indispensable for leukocyte migration. Interfering with the interactions between GAGs and chemokines can be a useful therapeutic strategy to inhibit inflammation. The chemokine CXCL9 binds to CXCR3 and is characterized by a highly positively charged COOH-terminal tail. A CXCL9-derived peptide, CXCL9(74-103), consisting ...
The source holds these as a separate data set.

Another assay concerns CXCR3. The following applies: cited from earlier work.
Source text: as §3

Regarding “AAARRARAAAARAKA [modified serglycin peptide in which Ala residues replaced all non-basic amino acids]”, the “Decrease in heparin-binding affinity compared with native peptide YPARRARYQWVRCKP” value in assay [1] (Ala residues replaced all non-basic amino acids) is listed as 350 fold.
Turning to * KKQKQSQSKKQKQSQSKKQKTT [KKQK-3mer], in assay [2], the “Effect of added soluble HA on binding of the peptide to cellular GAGs (MFI ([HS+]–[HS−]))” value (“Effect of added soluble HA” for short) is on record as “no significant differences”, the “Effect of added soluble HS on binding of the peptide to cellular GAGs (MFI ([HS+]–[HS−]))” value (“Effect of added soluble HS” for short) is listed as “no significant differences” and the “Effect of added soluble heparin on binding of the peptide to cellular GAGs (MFI ([HS+]–[HS−]))” value (“Effect of added soluble heparin” for short) was “no significant differences”. Moreover, in assay [3], the “Binding to HS+ CHO cells compared with HS- CHO cells (MFI)” value is on record as “bound significantly better to HS^+ CHO cells” and the “Binding capacity for cellular GAGs (MFI ([HS+]–[HS−])), comparison of the peptides” value (from here on “Binding capacity for cellular GAGs”) is “significantly higher (p < 0.05) in comparison with the binding capacity of the KKAK-2mer”.
On to * KKAKASASKKAKTT [KKAK-2mer], for which, in assay [3], the “Binding to HS+ CHO cells compared with HS- CHO cells (MFI)” value is on record as “bound significantly better to HS^+ CHO cells” and the “Binding capacity for cellular GAGs” value is listed as “lowest”.
Consider `CC(=O)NC(CCCNC(=N)N)C(N)=O` (stereo not drawn) [acetyl-Arg-amide], for which the “Tighter binding to heparin than the corresponding acetyl-Lys-amide” value in assay [4] is reported as “approximately 2.5 times”.
Turning to “* KKKQKNGKKHQKKKVLKVRKSQRSRQKKTT [CXCL9(74-103), chemokine-derived peptide, the 30 COOH-terminal amino acids of the chemokine CXCL9, TAMRA-labeled]”, in assay [2], the “Effect of added soluble HA” value was “no significant differences”, the “Effect of added soluble HS” value is “statistically significant reduction of binding” and the “Effect of added soluble heparin” value was “statistically significant reduction of binding”. Also, in assay [3], the “Binding to HS+ CHO cells compared with HS- CHO cells (MFI)” value is “bound significantly better to HS^+ CHO cells” and the “Binding capacity for cellular GAGs” value is recorded as “significantly higher (p < 0.0001) compared with that of the three other peptides”. Further, the “Binding to and signaling through CXCR3” value with CXCR3 is “lacks the capacity to bind to, and signal through, CXCR3”.
On to * KKKQQKQSQSKKKQQKTT [KKKQQK-2mer], for which, in assay [2], the “Effect of added soluble HA” value was “no significant differences”, the “Effect of added soluble HS” value is “no significant differences” and the “Effect of added soluble heparin” value was “no significant differences”. In assay [3], the “Binding to HS+ CHO cells compared with HS- CHO cells (MFI)” value is “bound significantly better to HS^+ CHO cells” and the “Binding capacity for cellular GAGs” value is listed as “significantly higher (p < 0.05) in comparison with the binding capacity of the KKAK-2mer”.
As for YPARRARYQWVRCKP, in assay [1] (fragment of native mouse serglycin core protein with BBXB motif), the Heparin-binding affinity result is listed as “significant heparin-binding affinity”.
